Data from patent US10993917B2, “Nanocomplex” (AGENCY FOR SCIENCE, TECHNOLOGY AND RESEARCH, priority 2016, dated 2021).

Key:
[1] = Drug release study by dialysis in PBS pH 7.4 (physiological stability); assay type: physicochemical; settings: 10 mM PBS pH 7.4, 37° C.
Description: The dialysis tube was immersed in total 30 mL of 10 mM PBS (pH 7.4). The dialysis tube was then incubated at 37° C. on an orbital shaker at 50 rpm. […] The dialysis tube was then immersed in total 30 mL of 100 mM phosphate buffer (pH 6) at 37° C. At predetermined time points, the amount of cisplatin released in the medium was determined by ICP-MS as described above. […] This rapid drug leakage was caused by the dissociation of HA/cisplatin complexes via the replacement of the carboxylate ligand of Pt(II) with the chloride ion in PBS.

[2] = tested on: SKOV-3 human ovarian cancer xenograft; experiment: Antitumor efficacy study in a subcutaneous xenograft model; assay type: in vivo, NCR mice; settings: 1 mg Pt kg^−1 i.v. on days 0, 7 and 14
Description: Female NCR mice bearing a subcutaneous SKOV-3 human ovarian cancer xenograft (120-150 mm^3) were randomly allocated to different treatments (10 mice per group). […] An isotonic dextrose solution (5% w/v) was used as a control. The tumor volume (mm^3) was calculated from the following formula: volume=(length×width^2)/2. In addition, a change in the body weight in the course of treatment was monitored as a measure of systemic toxicity.

[3] = Blood chemistry analysis 38 days after first treatment; assay type: in vivo, athymic NCR mice; settings: 38-days endpoint, 1 mg Pt kg^−1 i.v. days 0, 7, 14
Source text: The athymic NCR mice that received different treatments were sacrificed to collect blood, tumor, and organs 38 days after the first treatment. For blood chemistry analysis, blood samples were collected in heparinized tubes and then examined using the Vetscan VS2 blood chemistry analyzer (Abaxis Inc., of California of the United States of America). The levels of alkaline phosphatase (ALP), alanine aminotransferase (ALT) and other serum markers were examined. The excised tumors and organs were fixed with neutral buffered formalin, embedded in paraffin blocks, and then sectioned for hematoxylin and eosin (H&E) staining.

[4] = Biodistribution study in SKOV-3 tumor-bearing mice; assay type: in vivo, athymic NCR nude mice; settings: intravenous, 2 mg Pt kg^−1, 4 hours post-injection
Description: All animal experiments were performed according to the protocols approved by the IACUC at the Biological Resource Centre, Singapore. Female athymic NCR nude mice (CrTac:Ncr-Foxn1^nu, 5-6 weeks old) were inoculated subcutaneously with 1×10^7 SKOV-3 cells suspended in 100 μL of PBS and 100 μL of Matrigel (BD Bioscience, of the United States of America) in the right flank. […] At predetermined time points, blood and organs were collected (4 mice per time point). The collected plasma and organs were decomposed in 65% (v/v) nitric acid at 60° C. for 2 hours, and the platinum concentration was measured by ICP-MS.

N.N.[Cl][Pt][Cl] [free cisplatin, cisplatin]
time to complete release from the dialysis tube [1]: ≤ 6 h | tumor growth [2]: slightly delayed the tumor growth | mean tumor volume ([2]; day 38): 299.7±117.7 mm^3 | ALP level in blood [3]: elevated | ALT level in blood [3]: elevated | cisplatin dose delivered into the tumor mass [4]: 1.53±0.48 % ID/g | platinum accumulation in the liver [4]: 1.31±0.25 % ID/g
